Laboratory results reported in US10314843B2, “Combinations for the treatment of neoplasms using quiescent cell targeting and inhibitors of mitosis” (Felicitex Therapeutics, Inc., priority 2016, dated 2019).

Experiments:
SW620 cells [1] = assay: FACS cell cycle distribution by DNA content (propidium iodide), SW620 cells in FBS- media; format: cell-based; settings: 24 hours in FBS- media, AZ191 2.5, 5, 10 μM, Compound I-7 1.25, 2.5, 5 μM
Description: Cell cultures were seeded into 6-well plates at 3×10^5-6×10^5 cells/well; the plated number of cells depended on cell size and rate of proliferation, aiming for approximately 50% confluency. After seeding, the cells were allowed to attach for 24 hours while incubated at 37° C. in a humidified 5% CO2 atmosphere, and then treated with compounds for desired amount of time (usually 24 hours) incubating under same conditions. Then the cells were harvested by trypsinization, pooled with the floating cells, washed in PBS, and fixed in 70% ice-cold ethanol overnight. […] […] The complete protocol and composition of buffers are described in the literature (Darzynkiewicz Z, Juan G, and Srour E F (2004) Differential Staining of DNA and RNA (2004). Current Protocols in Cytometry, Chapter 7:Unit 7.3).
The SW620 cells were cultured and treated as described in Example 1. For propidium iodide (PI) staining, manufacturer's protocol supplied with the Guava Cell Cycle Reagent for Flow Cytometry (EMD Millipore) was followed. The measurements were performed with Guava PCA-96 flow cytometer (EMD Millipore) using the green laser for excitation at 535 nm and monitoring emission at 617 nm.
The SW620 cells were cultured, treated, and analyzed as described in Examples 1. […]

DMS273 cells = assay: FACS cell cycle distribution (Acridine Orange), DMS273 cells; format: cell-based; settings: FBS+ media, 24 hours
Description: (§1) The following cell lines were obtained from ATCC and cultured according to the ATCC recommendations: DMS273—small cell lung cancer cell line; H1975—non-small cell lung cancer cell line harboring L858R and T790M mutations in EGFR TK; A549—a non-small cell lung cancer cell line with wild type EGFR; LNCap—prostate cancer cell line; SW620—colon cancer cell line; MiaPaCa2—pancreatic cancer cell line; PANC1—pancreatic cancer cell line; OVCAR3—ovarian cancer cell line; SK-OV-3—ovarian cancer cell line.
(§2) Cell cultures were seeded into 6-well plates at 3×10^5-6×10^5 cells/well; the plated number of cells depended on cell size and rate of proliferation, aiming for approximately 50% confluency. After seeding, the cells were allowed to attach for 24 hours while incubated at 37° C. in a humidified 5% CO2 atmosphere, and then treated with compounds for desired amount of time (usually 24 hours) incubating under same conditions. Then the cells were harvested by trypsinization, pooled with the floating cells, washed in PBS, and fixed in 70% ice-cold ethanol overnight. For Acridine Orange (AO) staining, fixed cells were washed once with ice-cold PBS, re-suspended in 100 μL PBS, followed by addition of 200 μL of permeabilizing solution and 600 μL AO staining solution. The measurements were performed with Guava easyCyte HT flow cytometer (EMD Millipore) using the blue laser for excitation at 488 nm, monitoring emission of the AO-DNA complex at 526 nm and AO-RNA complex at 650 nm. The complete protocol and composition of buffers are described in the literature (Darzynkiewicz Z, Juan G, and Srour E F (2004) Differential Staining of DNA and RNA (2004). Current Protocols in Cytometry, Chapter 7:Unit 7.3).

SW620 cells [2] = assay: FACS cell cycle distribution (Acridine Orange), SW620 cells; format: cell-based; settings: combination of Compound I-7 (4 μM) with paclitaxel (2 nM), FBS+ media, 24 hours
Description: as §1, §2

quiescent cancer cells = settings: in vitro; reported by Ewton et al. 2011; cited from earlier work
[3] = combination of Compound I-7 (4 μM) with vincristine (1.1 nM)
[4] = combination of Compound I-7 (4 μM) with vinorelbine (8.1 nM)
[5] = combination of Compound I-7 with paclitaxel

Row | SMILES | fraction of cells in quiescent state (G0), based on fraction of cells in G0+G1 phase (SW620 cells [1]) | cytotoxicity (fraction of apoptotic cells, sub-G0 population) (DMS273 cells; [3]) | fraction of cells in G0 (DMS273 cells; [3]) | cytotoxicity (fraction of apoptotic cells, sub-G0 population) (DMS273 cells; [4]) | fraction of cells in G0 (DMS273 cells; [4]) | cytotoxicity (fraction of apoptotic cells, sub-G0 population) (DMS273 cells; [5]) | fraction of cells in G0 (DMS273 cells; [5]) | cytotoxicity (fraction of apoptotic cells, sub-G0 population) (SW620 cells [2]) | fraction of cells in G0 (SW620 cells [2]) | effectiveness against quiescent cancer cells (quiescent cancer cells)
1 | CCOC(=N)c1nc2ccc3ncnc(Nc4cc(F)c(F)cc4Cl)c3c2s1 [Compound I-7] | significant decrease in fraction of cells in quiescent state (G0) | significantly higher than that of vincristine alone | significant reduction of the fraction of cells in G0 | significantly higher than that of vinorelbine alone | significant reduction of the fraction of cells in G0 | significantly higher than that of paclitaxel alone | significant reduction of the fraction of cells in G0 | significantly higher than that of paclitaxel alone | significant reduction of the fraction of cells in G0 | –
2 | COc1ncc2cc(C(=O)Nc3cc(C(=O)NCc4cccc(Cl)c4)ccc3Cl)c(=O)[nH]c2n1 [TC-S 7004] | – | – | – | – | – | – | – | – | – | effective against quiescent cancer cells in vitro
